Data: PubChem BioAssay AID651650 (Sanford-Burnham Center for Chemical Genomics, 2012)
The source made the active and inactive calls.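 The calls were made as follows: active = mean IC50 below 20 µM in each of the two panels, so potent in both; inactive = the rest.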

Target: Neuropilin-1 (Homo sapiens) (UniProt O14786)
Assay: NRP-1 b1b2 CendR peptide binding inhibitors, dose response, biochemical, FP and AlphaScreen panel (AID 651650)
Conditions: NRP-1 b1b2 / RPARPAR peptide binding, FP or AlphaScreen
[1] = AlphaScreen, run 1, individual panel run IC50
[2] = FP, run 1, individual panel run IC50
[3] = FP, run 2, individual panel run IC50

Sequence of Neuropilin-1 (Homo sapiens) (O14786 whole entry, looked up): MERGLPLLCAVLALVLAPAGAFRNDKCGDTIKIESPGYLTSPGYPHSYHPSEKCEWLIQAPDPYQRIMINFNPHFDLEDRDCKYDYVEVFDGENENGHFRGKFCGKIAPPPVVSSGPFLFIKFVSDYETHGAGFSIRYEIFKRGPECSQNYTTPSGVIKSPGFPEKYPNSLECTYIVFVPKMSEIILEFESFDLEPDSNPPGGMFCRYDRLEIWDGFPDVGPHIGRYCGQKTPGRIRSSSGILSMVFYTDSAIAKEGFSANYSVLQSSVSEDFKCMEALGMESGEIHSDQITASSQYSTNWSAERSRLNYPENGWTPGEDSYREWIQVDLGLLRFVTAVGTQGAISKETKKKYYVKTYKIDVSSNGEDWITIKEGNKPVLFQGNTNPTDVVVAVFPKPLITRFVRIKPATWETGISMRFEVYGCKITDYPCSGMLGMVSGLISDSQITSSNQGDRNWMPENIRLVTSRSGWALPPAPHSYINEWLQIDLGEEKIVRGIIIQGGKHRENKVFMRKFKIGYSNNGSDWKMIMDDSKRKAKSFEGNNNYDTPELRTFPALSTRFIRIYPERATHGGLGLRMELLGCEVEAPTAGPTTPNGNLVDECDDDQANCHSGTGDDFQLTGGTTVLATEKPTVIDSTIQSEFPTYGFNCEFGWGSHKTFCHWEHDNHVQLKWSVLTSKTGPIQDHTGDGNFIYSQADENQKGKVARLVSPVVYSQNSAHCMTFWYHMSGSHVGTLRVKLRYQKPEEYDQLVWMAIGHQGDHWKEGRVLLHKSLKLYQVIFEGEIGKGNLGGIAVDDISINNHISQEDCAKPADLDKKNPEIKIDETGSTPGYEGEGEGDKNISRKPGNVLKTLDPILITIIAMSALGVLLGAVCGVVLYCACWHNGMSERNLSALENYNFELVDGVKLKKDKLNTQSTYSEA

| SMILES | IC50 (AlphaScreen, mean of runs) | IC50 [1] [µM] | IC50 (FP, mean of runs) | IC50 [2] [µM] | IC50 [3] [µM] |
| --- | --- | --- | --- | --- | --- |
| O=C(c1cccc(F)c1)N1CCN(c2ccc([N+](=O)[O-])c(N3CCCCC3)c2)CC1 | > 100 µM (inactive) | > 100 | > 95 µM (inactive) | > 95 | > 95 |
| O=C1CSC(c2cn(-c3ccccc3)nc2-c2cccs2)N1CC1CCCO1 (stereo not given) | inactive | 44.4 | > 95 µM (inactive) | > 95 | > 95 |
| O=C(Nc1cc(C(F)(F)F)ccc1N1CCCC1)C1CC(=O)N(Cc2ccccc2)C1 (stereo not given) | > 100 µM (inactive) | > 100 | > 95 µM (inactive) | > 95 | > 95 |
| Cc1ccccc1S(=O)(=O)Nc1nc2ccccc2nc1NCCO | > 100 µM (inactive) | > 100 | > 95 µM (inactive) | > 95 | > 95 |
| NC1=NC[C@@H](Cc2ccc(O)cc2)N1CCCCC1CCCCC1 | > 100 µM (inactive) | > 100 | > 95 µM (inactive) | > 95 | > 95 |
| Cc1ccnc(N2CCC(C(=O)Nc3ccc4c(c3)OCCO4)CC2)n1 | > 100 µM (inactive) | > 100 | > 95 µM (inactive) | > 95 | > 95 |
| O=C(CSC1CN(C(c2ccccc2)c2ccccc2)C1)N/N=C/c1ccccc1 | 5.56 µM | 5.56 | > 95 µM (inactive) | > 95 | > 95 |
| COc1ccc(Cl)cc1NC(=O)C(C)N1CCc2ccccc21 (stereo not given) | inactive | 45.6 | inactive | 50 | 30.3 |
| CN(Cc1ccccc1)C(=O)c1nc[nH]c1C(=O)N1CCN(C(=O)OC(C)(C)C)CC1 | > 100 µM (inactive) | > 100 | > 95 µM (inactive) | > 95 | > 95 |
| NC(=O)CC[C@H](NC(=O)c1ccc(F)cc1)C(=O)N1CCN(Cc2ccc3c(c2)OCO3)CC1 | > 100 µM (inactive) | > 100 | > 95 µM (inactive) | > 95 | > 95 |
| Cc1cccc(CN2CCN(C3CN(Cc4cn(Cc5cccc(Cl)c5)nn4)S(=O)(=O)C3)CC2)c1 (stereo not given) | > 100 µM (inactive) | > 100 | > 95 µM (inactive) | > 95 | > 95 |
| O=C(Cn1cccc1C(=O)c1ccccc1)NCCC1=CCCCC1 | 7.12 µM | 7.12 | > 95 µM (inactive) | > 95 | > 95 |
| CCOC(=O)N1CCN(C(=O)Nc2ccc3nc(C)c(C)nc3c2)CC1 | > 100 µM (inactive) | > 100 | > 95 µM (inactive) | > 95 | > 95 |
| Cc1c(NP(=O)(C(C)(C)C)C(C)(C)C)c(=O)n(-c2ccccc2)n1C | > 100 µM (inactive) | > 100 | > 95 µM (inactive) | > 95 | > 95 |
| COc1ccc(-c2cc(C)no2)cc1S(=O)(=O)NCc1cccc(C)c1 | > 100 µM (inactive) | > 100 | > 95 µM (inactive) | > 95 | > 95 |
| Cc1onc(-c2ccccc2)c1C(=O)Nc1c(C)n(C)n(-c2ccccc2)c1=O | > 100 µM (inactive) | > 100 | > 95 µM (inactive) | > 95 | > 95 |
| CCOc1ccccc1C1CC(=O)NC2=C1C(=O)CC(C)(C)C2 (stereo not given) | > 100 µM (inactive) | > 100 | > 95 µM (inactive) | > 95 | > 95 |

| SMILES | IC50 (AlphaScreen, mean of runs) | IC50 [1] [µM] | IC50 (FP, mean of runs) | IC50 [2] [µM] | IC50 [3] [µM] |
| --- | --- | --- | --- | --- | --- |
| N#Cc1ccc(COC(=O)c2cnc(Cl)c(Cl)c2)cc1 | > 100 µM (inactive) | > 100 | > 95 µM (inactive) | > 95 | > 95 |
| CN(c1ccccc1)S(=O)(=O)c1cccc(NC(=O)CSc2nncn2C)c1 | > 100 µM (inactive) | > 100 | > 95 µM (inactive) | > 95 | > 95 |
| O=c1c2ccccc2nc2n1C(CSc1ccc(F)cc1)CS2 (stereo not given) | 11.5 µM | 11.5 | > 95 µM (inactive) | > 95 | > 95 |
| COc1cc(Cn2nnc3ccccc32)cc(Br)c1O | > 100 µM (inactive) | > 100 | > 95 µM (inactive) | > 95 | > 95 |
| COc1ccc(Cn2c(C3CC3)nc3ccc(NC(=O)c4cccnc4)cc3c2=O)cc1 | inactive | 31.7 | > 95 µM (inactive) | > 95 | > 95 |
| O=C(Cn1ccc(NC(=O)OCc2ccccc2)nc1=O)NCCCn1ccnc1 | > 100 µM (inactive) | > 100 | > 95 µM (inactive) | > 95 | > 95 |
| OCCNc1ncnc2ccc(Br)cc12 | inactive | 45.2 | > 95 µM (inactive) | > 95 | > 95 |
| CCOC(=O)N1CCN(C(=O)c2cc(COc3ccc(OC)cc3Cl)on2)CC1 | > 100 µM (inactive) | > 100 | > 95 µM (inactive) | > 95 | > 95 |
| Cc1ccc(NC(=S)N2CCN(Cc3ccccc3)CC2)cc1 | > 100 µM (inactive) | > 100 | > 95 µM (inactive) | > 95 | > 95 |
| CC(C)(C)N(NC(=O)Nc1ccc(Cl)cc1)C(=O)c1ccccc1 | > 100 µM (inactive) | > 100 | > 95 µM (inactive) | > 95 | > 95 |
| Cn1c(=O)c2[nH]c(NCCCN3CCOCC3)nc2n(C)c1=O | > 100 µM (inactive) | > 100 | inactive | > 95 | 56.1 |
| Cc1ccc(C2(O)CCN3CCCCC32)cc1 (stereo not given) | > 100 µM (inactive) | > 100 | > 95 µM (inactive) | > 95 | > 95 |
| CCC1=C(OC(=O)N(CC)CC)N2C(=O)OC(=NCC(=O)OC)[C@]2(C)[C@H]2C1=CC[C@H]1C(=O)N(CC)C(=O)[C@H]12 | > 100 µM (inactive) | > 100 | > 95 µM (inactive) | > 95 | > 95 |
| Cc1ccccc1-c1cnc(C(O)c2ccc(F)c(F)c2)[nH]1 (stereo not given) | > 100 µM (inactive) | > 100 | > 95 µM (inactive) | > 95 | > 95 |
| Cn1c(=O)c2c(nc(OCc3cccnc3)n2Cc2ccccc2)n(C)c1=O | inactive | 40.7 | > 95 µM (inactive) | > 95 | > 95 |
| O=C(Nc1cccc(C(F)(F)F)c1)C1Cc2c(-c3cccc(F)c3)ccnc2O1 (stereo not given) | > 100 µM (inactive) | > 100 | > 95 µM (inactive) | > 95 | > 95 |
